According to patent US11724992B2 (Novartis AG, priority 2017, dated 2023):

tested on: IL-1β production in PMA-differentiated THP-1 cells; assay: IL-1β production in PMA-differentiated THP-1 cells stimulated with gramicidin (hTHP-1 assay, 2% fetal bovine serum; Procedures 1-3); type: cell-based, human; settings: hTHP-1 assay containing 2% fetal bovine serum; class symbols; read-out: hTHP-1 IC50 (Average IC50 of compounds in hTHP-1 assay)
Summary of the method: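 PMA-differentiated (20 ng/ml, 16-18 h) THP-1 cells in RPMI with 2% FBS, 50,000 cells/well, preincubated 1 h with compound (final 100–0.0017 μM, 0.37% DMSO), then stimulated with 5 μM gramicidin for 2 h. Supernatant IL-1β measured by HTRF.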

Row | SMILES | IC50
1 | CN(C)C(C)(C)c1ccc(S(N)(=O)=NC(=O)Nc2c3c(cc4c2CCC4)CCC3)cc1 (single isomer, unassigned) [Example 362, (S) or (R)-4-(2-(dimethylamino)propan-2-yl)-N′-((1,2,3,5,6,7-hexahydro-s-indacen-4-yl)carbamoyl)benzenesulfonimidamide] | 1000 to 5000 nM
2 | CC(C)(O)c1ncc(S(N)(=O)=NC(=O)Nc2c3c(cc4c2C(=O)CC4)CCC3)s1 (single isomer, unassigned) [Example 363, (S) or (R)-2-(2-Hydroxypropan-2-yl)-N′-((3-oxo-1,2,3,5,6,7-hexahydro-s-indacen-4-yl)carbamoyl)thiazole-5-sulfonimidamide] | 1000 to 5000 nM
3 | CC(c1ccc(S(N)(=O)=NC(=O)Nc2c3c(cc4c2CCC4)CCC3)cc1)N(C)C (single isomer, unassigned) [Example 371, (S) or (R)-4-(1-(dimethylamino)ethyl)-N′-((1,2,3,5,6,7-hexahydro-s-indacen-4-yl)carbamoyl)benzenesulfonimidamide] | 5000 to 30000 nM
4 | CNS(=O)(=NC(=O)Nc1c2c(cc3c1CCC3)CCC2)c1cnc(C(C)(C)O)s1 (single isomer, unassigned) [Example 373, (R) or (S)-N′-((1,2,3,5,6,7-hexahydro-s-indacen-4-yl)carbamoyl)-2-(2-hydroxypropan-2-yl)-N-methylthiazole-5-sulfonimidamide] | 5000 to 30000 nM
5 | CC(c1ccc(S(N)(=O)=NC(=O)Nc2c3c(cc4c2CCC4)CCC3)cc1)N(C)C (single isomer, unassigned) [Example 375, (S,R) or (S,S) or (R,S) or (R,R)-4-(1-(dimethylamino)ethyl)-N′-((1,2,3,5,6,7-hexahydro-s-indacen-4-yl)carbamoyl)benzenesulfonimidamide] | 5000 to 30000 nM
6 | CC(c1ccc(S(N)(=O)=NC(=O)Nc2c3c(cc4c2CCC4)CCC3)cc1)N(C)C (single isomer, unassigned) [Example 376, (S,S) or (S,R) or (R,R) or (R,S)-4-(1-(dimethylamino)ethyl)-N′-((1,2,3,5,6,7-hexahydro-s-indacen-4-yl)carbamoyl)benzenesulfonimidamide] | 5000 to 30000 nM
7 | CN(C)Cc1cc(F)c(S(N)(=O)=NC(=O)Nc2c3c(cc4c2CCC4)CCC3)s1 (single isomer, unassigned) [Example 382, (S) or (R)-5-((dimethylamino)methyl)-3-fluoro-N′-((1,2,3,5,6,7-hexahydro-s-indacen-4-yl)carbamoyl)thiophene-2-sulfonimidamide] | 1000 to 5000 nM
8 | COC(C)(C)c1ncc(S(N)(=O)=NC(=O)Nc2c3c(cc4c2CCC4)CCC3)s1 (single isomer, unassigned) [Example 387, (S) or (R)-N′-((1,2,3,5,6,7-hexahydro-s-indacen-4-yl)carbamoyl)-2-(2-methoxypropan-2-yl)thiazole-5-sulfonimidamide] | 1000 to 5000 nM
9 | COC(C)(C)c1ccc(S(N)(=O)=NC(=O)Nc2c3c(cc4c2CCC4)CCC3)cc1 (single isomer, unassigned) [Example 400, (S) or (R)-N′-((1,2,3,5,6,7-hexahydro-s-indacen-4-yl)carbamoyl)-4-(2-methoxypropan-2-yl)benzenesulfonimidamide] | 5000 to 30000 nM
10 | CNCc1ccc(S(N)(=O)=NC(=O)Nc2c3c(cc4c2CCC4)CCC3)c(F)c1 (single isomer, unassigned) [Example 404, (S) or (R)-2-fluoro-N′-((1,2,3,5,6,7-hexahydro-s-indacen-4-yl)carbamoyl)-4-((methylamino)methyl)benzenesulfonimidamide] | 5000 to 30000 nM
11 | CN1CCCC1c1ccc(S(=N)(=O)NC(=O)Nc2c3c(cc4c2CCC4)CCC3)cc1 (single isomer, unassigned) [Example 407, (R,R) or (R,S) or (S,S) or (S,R)-N-((1,2,3,5,6,7-hexahydro-s-indacen-4-yl)carbamoyl)-4-(1-methylpyrrolidin-2-yl)benzenesulfonimidamide] | 5000 to 30000 nM
12 | CN1CCCC1c1ccc(S(=N)(=O)NC(=O)Nc2c3c(cc4c2CCC4)CCC3)cc1 (single isomer, unassigned) [Example 408, (S,R) or (S,S) or (R,S) or (R,R)-N-((1,2,3,5,6,7-hexahydro-s-indacen-4-yl)carbamoyl)-4-(1-methylpyrrolidin-2-yl)benzenesulfonimidamide] | 1000 to 5000 nM

Further lines, results first:

Row | IC50 | SMILES
13 | 200 to 1000 nM | CC(C)(O)c1ncc(S(N)(=O)=NC(=O)Nc2c3c(cc4c2CC4)CC3)s1 (single isomer, unassigned) [Example 356, (S) or (R)-2-(2-hydroxypropan-2-yl)-N′-(tricyclo[6.2.0.03,6]deca-1,3(6),7-trien-2-ylcarbamoyl)thiazole-5-sulfonimidamide]
14 | 8 to 40 nM | Cc1sc(S(N)(=O)=NC(=O)Nc2c3c(cc4c2CCC4)CCC3)nc1C(C)(C)O (single isomer, unassigned) [Example 359, (R) or (S)-N′-((1,2,3,5,6,7-hexahydro-s-indacen-4-yl)carbamoyl)-4-(2-hydroxypropan-2-yl)-5-methylthiazole-2-sulfonimidamide]
15 | 200 to 1000 nM | Cc1sc(S(N)(=O)=NC(=O)Nc2c3c(cc4c2CCC4)CCC3)nc1C(C)(C)O (single isomer, unassigned) [Example 360, (S) or (R)-N′-((1,2,3,5,6,7-hexahydro-s-indacen-4-yl)carbamoyl)-4-(2-hydroxypropan-2-yl)-5-methylthiazole-2-sulfonimidamide]
16 | 40 to 200 nM | CN(C)C(C)(C)c1ccc(S(N)(=O)=NC(=O)Nc2c3c(cc4c2CCC4)CCC3)cc1 (single isomer, unassigned) [Example 361, (R) or (S)-4-(2-(dimethylamino)propan-2-yl)-N′-((1,2,3,5,6,7-hexahydro-s-indacen-4-yl)carbamoyl)benzenesulfonimidamide]
17 | 40 to 200 nM | CC(C)(O)c1ncc(S(N)(=O)=NC(=O)Nc2c3c(cc4c2C(=O)CC4)CCC3)s1 (single isomer, unassigned) [Example 364, (R) or (S)-2-(2-Hydroxypropan-2-yl)-N′-((3-oxo-1,2,3,5,6,7-hexahydro-s-indacen-4-yl)carbamoyl)thiazole-5-sulfonimidamide]
18 | 40 to 200 nM | CC(c1ccc(S(N)(=O)=NC(=O)Nc2c3c(cc4c2CCC4)CCC3)cc1)N(C)C (single isomer, unassigned) [Example 372, (R) or (S)-4-(1-(dimethylamino)ethyl)-N′-((1,2,3,5,6,7-hexahydro-s-indacen-4-yl)carbamoyl)benzenesulfonimidamide]
19 | 8 to 40 nM | CNS(=O)(=NC(=O)Nc1c2c(cc3c1CCC3)CCC2)c1cnc(C(C)(C)O)s1 (single isomer, unassigned) [Example 374, (S) or (R)-N′-((1,2,3,5,6,7-hexahydro-s-indacen-4-yl)carbamoyl)-2-(2-hydroxypropan-2-yl)-N-methylthiazole-5-sulfonimidamide]
20 | 40 to 200 nM | CC(c1ccc(S(N)(=O)=NC(=O)Nc2c3c(cc4c2CCC4)CCC3)cc1)N(C)C (single isomer, unassigned) [Example 377, (R,R) or (R,S) or (S,S) or (S,R)-4-(1-(dimethylamino)ethyl)-N′-((1,2,3,5,6,7-hexahydro-s-indacen-4-yl)carbamoyl)benzenesulfonimidamide]
21 | 200 to 1000 nM | CC(c1ccc(S(N)(=O)=NC(=O)Nc2c3c(cc4c2CCC4)CCC3)cc1)N(C)C (single isomer, unassigned) [Example 378, (R,S) or (R,R) or (S,R) or (S,S)-4-(1-(dimethylamino)ethyl)-N′-((1,2,3,5,6,7-hexahydro-s-indacen-4-yl)carbamoyl)benzenesulfonimidamide]
22 | 8 to 40 nM | CN(C)Cc1cc(F)c(S(N)(=O)=NC(=O)Nc2c3c(cc4c2CCC4)CCC3)s1 (single isomer, unassigned) [Example 381, (R) or (S)-5-((dimethylamino)methyl)-3-fluoro-N′-((1,2,3,5,6,7-hexahydro-s-indacen-4-yl)carbamoyl)thiophene-2-sulfonimidamide]
23 | 8 to 40 nM | CC(C)(O)c1cc(F)c(S(N)(=O)=NC(=O)Nc2c3c(cc4c2CCC4)CCC3)s1 (single isomer, unassigned) [Example 385, (R) or (S)-3-fluoro-N′-((1,2,3,5,6,7-hexahydro-s-indacen-4-yl)carbamoyl)-5-(2-hydroxypropan-2-yl)thiophene-2-sulfonimidamide]
24 | 200 to 1000 nM | CC(C)(O)c1cc(F)c(S(N)(=O)=NC(=O)Nc2c3c(cc4c2CCC4)CCC3)s1 (single isomer, unassigned) [Example 386, (S) or (R)-3-fluoro-N′-((1,2,3,5,6,7-hexahydro-s-indacen-4-yl)carbamoyl)-5-(2-hydroxypropan-2-yl)thiophene-2-sulfonimidamide]
25 | 40 to 200 nM | COC(C)(C)c1ncc(S(N)(=O)=NC(=O)Nc2c3c(cc4c2CCC4)CCC3)s1 (single isomer, unassigned) [Example 388, (R) or (S)-N′-((1,2,3,5,6,7-hexahydro-s-indacen-4-yl)carbamoyl)-2-(2-methoxypropan-2-yl)thiazole-5-sulfonimidamide]
26 | 200 to 1000 nM | COC(C)(C)c1ccc(S(N)(=O)=NC(=O)Nc2c3c(cc4c2CCC4)CCC3)cc1 (single isomer, unassigned) [Example 399, (R) or (S)-N′-((1,2,3,5,6,7-hexahydro-s-indacen-4-yl)carbamoyl)-4-(2-methoxypropan-2-yl)benzenesulfonimidamide]
27 | 200 to 1000 nM | CNCc1ccc(S(N)(=O)=NC(=O)Nc2c3c(cc4c2CCC4)CCC3)c(F)c1 (single isomer, unassigned) [Example 403, (R) or (S)-2-fluoro-N′-((1,2,3,5,6,7-hexahydro-s-indacen-4-yl)carbamoyl)-4-((methylamino)methyl)benzenesulfonimidamide]
